Source: patent publication US20100160445A1, “Synergistic Mixtures of OPP and DGH” (priority 2002, published 2010)
Structures can show the parent of a compound that is named as a salt.

System: wild strain bacteria isolated from previously contaminated systems
Test: In-Can Preservation Test of paint samples; as to Microbial growth, 1st Inoculation, 1st sub-column: key: 4 = Heavy Microbial Growth; 3 = Moderate Microbial Growth; 2 = Slight Microbial Growth; 1 = Trace Microbial Growth; 0 = No Microbial Growth; as to Microbial growth, 1st Inoculation, 2nd sub-column: key: 4 = Heavy Microbial Growth; 3 = Moderate Microbial Growth; 2 = Slight Microbial Growth; 1 = Trace Microbial Growth; 0 = No Microbial Growth; as to Microbial growth, 2nd Inoculation, 1st sub-column: key: 4 = Heavy Microbial Growth; 3 = Moderate Microbial Growth; 2 = Slight Microbial Growth; 1 = Trace Microbial Growth; 0 = No Microbial Growth; as to Microbial growth, 2nd Inoculation, 2nd sub-column: key: 4 = Heavy Microbial Growth; 3 = Moderate Microbial Growth; 2 = Slight Microbial Growth; 1 = Trace Microbial Growth; 0 = No Microbial Growth
Type: cell-based
Conditions: for Effective Preservative (ppm): two inoculation challenge
Method: Preservation Testing was performed on the three paint samples: Acrylic Flat, Acrylic and Vinyl Acrylic. Each sample was treated with various levels OPP, DGH individually and a mixture of OPP and DGH. All samples were then inoculated with wild strain bacteria isolated from previously contaminated systems. Following the initial inoculation, the samples were reinoculated on day 7. This testing scenario best simulates what happens in a “real world” situation. […]

[1] = Table 2 paint (Acrylic Flat / Vinyl Acrylic Flat), 250 ppm
[2] = Table 2 paint (Acrylic Flat / Vinyl Acrylic Flat), 500 ppm
[3] = Table 2 paint (Acrylic Flat / Vinyl Acrylic Flat), 750 ppm
[4] = Table 2 paint (Acrylic Flat / Vinyl Acrylic Flat), 1000 ppm
[5] = Table 2 paint (Acrylic Flat / Vinyl Acrylic Flat), 1500 ppm
[6] = Table 2 paint (Acrylic Flat / Vinyl Acrylic Flat), 2000 ppm
[7] = Table 3 paint (Vinyl Acrylic Flat / Acrylic Flat), 250 ppm
[8] = Table 3 paint (Vinyl Acrylic Flat / Acrylic Flat), 500 ppm
[9] = Table 3 paint (Vinyl Acrylic Flat / Acrylic Flat), 750 ppm
[10] = Table 3 paint (Vinyl Acrylic Flat / Acrylic Flat), 1000 ppm
[11] = Table 3 paint (Vinyl Acrylic Flat / Acrylic Flat), 1500 ppm
[12] = Table 3 paint (Vinyl Acrylic Flat / Acrylic Flat), 2000 ppm

With `CCCCCCCCCCCCNC(=N)N` [DGH, Dodecylguanidine Hydrochloride] the “Effective Preservative (ppm)” value (Acrylic Flat paint) was 1500 ppm, the “Microbial growth, 1st Inoculation, 1st sub-column” value (Acrylic paint, 250 ppm) was 3 and the “Microbial growth, 1st Inoculation, 2nd sub-column” value (Acrylic paint, 250 ppm) was 3. The “Microbial growth, 2nd Inoculation, 1st sub-column” value (Acrylic paint, 250 ppm) was 3, the “Microbial growth, 2nd Inoculation, 2nd sub-column” value (Acrylic paint, 250 ppm) was 3 and the “Microbial growth, 1st Inoculation, 1st sub-column” value (Acrylic paint, 500 ppm) was 3. The “Microbial growth, 1st Inoculation, 2nd sub-column” value (Acrylic paint, 500 ppm) was 3, the “Microbial growth, 2nd Inoculation, 1st sub-column” value (Acrylic paint, 500 ppm) was 2 and the “Microbial growth, 2nd Inoculation, 2nd sub-column” value (Acrylic paint, 500 ppm) was 3. The “Microbial growth, 1st Inoculation, 1st sub-column” value (Acrylic paint, 750 ppm) was 3, the “Microbial growth, 1st Inoculation, 2nd sub-column” value (Acrylic paint, 750 ppm) was 2 and the “Microbial growth, 2nd Inoculation, 1st sub-column” value (Acrylic paint, 750 ppm) was 2. The “Microbial growth, 2nd Inoculation, 2nd sub-column” value (Acrylic paint, 750 ppm) was 2, the “Microbial growth, 1st Inoculation, 1st sub-column” value (Acrylic paint, 1000 ppm) was 3 and the “Microbial growth, 1st Inoculation, 2nd sub-column” value (Acrylic paint, 1000 ppm) was 2. The “Microbial growth, 2nd Inoculation, 1st sub-column” value (Acrylic paint, 1000 ppm) was 1, the “Microbial growth, 2nd Inoculation, 2nd sub-column” value (Acrylic paint, 1000 ppm) was 1 and the “Microbial growth, 1st Inoculation, 1st sub-column” value (Acrylic paint, 1500 ppm) was 3. For the same molecule, the “Microbial growth, 1st Inoculation, 2nd sub-column” value (Acrylic paint, 1500 ppm) was 0, the “Microbial growth, 2nd Inoculation, 1st sub-column” value (Acrylic paint, 1500 ppm) was 1 and the “Microbial growth, 2nd Inoculation, 2nd sub-column” value (Acrylic paint, 1500 ppm) was 0. For the same molecule, the “Microbial growth, 1st Inoculation, 1st sub-column” value (Acrylic paint, 2000 ppm) was 3, the “Microbial growth, 1st Inoculation, 2nd sub-column” value (Acrylic paint, 2000 ppm) was 0 and the “Microbial growth, 2nd Inoculation, 1st sub-column” value (Acrylic paint, 2000 ppm) was 1. For the same molecule, the “Microbial growth, 2nd Inoculation, 2nd sub-column” value (Acrylic paint, 2000 ppm) was 0, the “Effective Preservative (ppm)” value (Acrylic paint) was 2000 ppm and the “Microbial growth, 1st Inoculation, 1st sub-column” value [1] was 3. The “Microbial growth, 1st Inoculation, 2nd sub-column” value [1] was 2, the “Microbial growth, 2nd Inoculation, 1st sub-column” value [1] was 3 and the “Microbial growth, 2nd Inoculation, 2nd sub-column” value [1] was 2. The “Microbial growth, 1st Inoculation, 1st sub-column” value [2] was 3, the “Microbial growth, 1st Inoculation, 2nd sub-column” value [2] was 2 and the “Microbial growth, 2nd Inoculation, 1st sub-column” value [2] was 2. The “Microbial growth, 2nd Inoculation, 2nd sub-column” value [2] was 2, the “Microbial growth, 1st Inoculation, 1st sub-column” value [3] was 3 and the “Microbial growth, 1st Inoculation, 2nd sub-column” value [3] was 2. The “Microbial growth, 2nd Inoculation, 1st sub-column” value [3] was 2, the “Microbial growth, 2nd Inoculation, 2nd sub-column” value [3] was 2 and the “Microbial growth, 1st Inoculation, 1st sub-column” value [4] was 3. The “Microbial growth, 1st Inoculation, 2nd sub-column” value [4] was 2, the “Microbial growth, 2nd Inoculation, 1st sub-column” value [4] was 3 and the “Microbial growth, 2nd Inoculation, 2nd sub-column” value [4] was 2. For the same molecule, the “Microbial growth, 1st Inoculation, 1st sub-column” value [5] was 3, the “Microbial growth, 1st Inoculation, 2nd sub-column” value [5] was 2 and the “Microbial growth, 2nd Inoculation, 1st sub-column” value [5] was 3. For the same molecule, the “Microbial growth, 2nd Inoculation, 2nd sub-column” value [5] was 1, the “Microbial growth, 1st Inoculation, 1st sub-column” value [6] was 3 and the “Microbial growth, 1st Inoculation, 2nd sub-column” value [6] was 0. The “Microbial growth, 2nd Inoculation, 1st sub-column” value [6] was 1, the “Microbial growth, 2nd Inoculation, 2nd sub-column” value [6] was 0 and the “Microbial growth, 1st Inoculation, 1st sub-column” value [7] was 3. For the same molecule, the “Microbial growth, 1st Inoculation, 2nd sub-column” value [7] was 2, the “Microbial growth, 2nd Inoculation, 1st sub-column” value [7] was 3 and the “Microbial growth, 2nd Inoculation, 2nd sub-column” value [7] was 2. For the same molecule, the “Microbial growth, 1st Inoculation, 1st sub-column” value [8] was 2, the “Microbial growth, 1st Inoculation, 2nd sub-column” value [8] was 2 and the “Microbial growth, 2nd Inoculation, 1st sub-column” value [8] was 3. For the same molecule, the “Microbial growth, 2nd Inoculation, 2nd sub-column” value [8] was 1, the “Microbial growth, 1st Inoculation, 1st sub-column” value [9] was 2 and the “Microbial growth, 1st Inoculation, 2nd sub-column” value [9] was 2. For the same molecule, the “Microbial growth, 2nd Inoculation, 1st sub-column” value [9] was 3, the “Microbial growth, 2nd Inoculation, 2nd sub-column” value [9] was 1 and the “Microbial growth, 1st Inoculation, 1st sub-column” value [10] was 2. For the same molecule, the “Microbial growth, 1st Inoculation, 2nd sub-column” value [10] was 2, the “Microbial growth, 2nd Inoculation, 1st sub-column” value [10] was 3 and the “Microbial growth, 2nd Inoculation, 2nd sub-column” value [10] was 1. The “Microbial growth, 1st Inoculation, 1st sub-column” value [11] was 2, the “Microbial growth, 1st Inoculation, 2nd sub-column” value [11] was 2 and the “Microbial growth, 2nd Inoculation, 1st sub-column” value [11] was 2. For the same molecule, the “Microbial growth, 2nd Inoculation, 2nd sub-column” value [11] was 2, the “Microbial growth, 1st Inoculation, 1st sub-column” value [12] was 2 and the “Microbial growth, 1st Inoculation, 2nd sub-column” value [12] was 2. The “Microbial growth, 2nd Inoculation, 1st sub-column” value [12] was 2, the “Microbial growth, 2nd Inoculation, 2nd sub-column” value [12] was 2 and the “Effective Preservative (ppm)” value (Vinyl Acrylic Flat paint) was greater than 2000 ppm.
